Consider 5 molecules from patent US6949381B2, “Immortalized human skin cell lines and novel serum-free medium useful for the production thereof” (Nestec S.A., priority 1995, dated 2005).

Common to all, as to assay type: cell-based, Human
One experiment deals with collagenase (type I). Description: Collagenase (type I) expression after phorbol ester treatment. The note with it: immortalized keratinocytes treated with phorbol esters.
Experiment [1] concerns melanocytes (DM2-NR, normal). Description: Induction/inhibition of melanin synthesis in melanocytes. The settings on record: T-Ag expressing melanocyte lines (especially DM2-NR), comparable to normal cells.
Method: The melanocytes were treated with the melanogensis inducers tyrosin and theophylline and the melanogenesis inhibitor kojic acid.
For another experiment, the system named is normal keratinocytes. Put plainly: Keratinocyte growth in serum-free media (cell count, FIG. 1). The settings on record: serum free medium. From the text:
FIG. 1 compares the growth (in terms of cell number) of non-immortalized DKO-NR keratinocytes in three different media, i.e., NR-3, epinephrine-supplemented modified MCDB 153 and MCDB 153 after 6 days.
• 1) Characterization of Keratinocytes Growth in Serum-free Media: primary cell cultures were cultivated in modified MCDB 153 [Boyce et al., J. Tissue Cult. Meth., 9:83-93 (1985); and Pittlekow et al., J. Invest. Dermatol., 86:410-417, 1986] and NR-3 media.
FIG. 1 comprises cell growth in NR-3 and epinephrine-supplemented modified MCDB 153 (keratinocyte growth medium) after 6 days. The modified MCDB 153 medium refers to modified MCDB 153. Keratinocytes were harvested in trypsin/EDTA (0.05%/0.01%) and counted by using a hemocytometer. […] In particular, the results shown in Table 2 compare the growth of keratinocytes in coated and uncoated culture plates. 100,000 keratinocytes were seeded on 3.5 cm plates containing NR-3 medium.

Molecules are shown by their SMILES.

On to `CCCCCCCCCCCCCC(=O)O[C@@H]1[C@@H](C)[C@@]2(O)[C@@H](C=C(CO)C[C@]3(O)C(=O)C(C)=C[C@@H]23)[C@@H]2C(C)(C)[C@]12OC(C)=O` [PMA, phorbol-12-myristate-13-acetate], for which, in the experiment with collagenase (type I), the “collagenase (type I) expression” value is on record as “increase of collagenase (type I) expression”. Turning to `Cn1c(=O)c2[nH]cnc2n(C)c1=O` [theophylline], in experiment [1], the induction/inhibition of melanogenesis entry is listed as “dose dependent”.

For `CNC[C@H](O)c1ccc(O)c(O)c1` [epinephrine], in the experiment with normal keratinocytes, the “growth of normal keratinocytes” value is recorded as “strong growth factor of normal keratinocytes”. Consider `O=c1cc(CO)occ1O` [kojic acid], for which the induction/inhibition of melanogenesis entry in experiment [1] is recorded as “dose dependent”.

For `N[C@@H](Cc1ccc(O)cc1)C(=O)O` [tyrosin], the induction/inhibition of melanogenesis result in experiment [1] was “dose dependent”.
